Test [1] deals with T1, IRE1 (Homo sapiens, UniProt O75460). Briefly: SelectScreen kinase profiling, IRE1. The settings on record: 1 µM, 1 h. The test is classed as biochemical. As to the method:
The kinome selectivity of G6374 was assessed at 1 μM for 1 h versus a panel of 220 human kinases (SelectScreen Kinase Profiling Services, Thermo Fisher Scientific). The assays were conducted using either the Z’-LYTE technology to assess inhibition of enzyme activity ([ATP] = Km) or the TR-FRET-based LanthaScreen Eu Kinase Binding assay to assess competitive displacement of an ATP site binding probe. Assay results were normalized to positive and negative controls to determine percent inhibition. Image was created by KNIME Report Designer (KNIME.com AG, Zurich, Switzerland). Kinases for which ATP binding was inhibited by more than 90% were further examined by IB analysis for depletion by G6374 in AMO1 cells (4 h incubation).

Test [2] addresses T2, PKD1 (Homo sapiens, UniProt Q15139).
T2 construct: endogenous in cells; host or cells: KMS27
Description: Immunoblot of PKD1 degradation in KMS27 cells. In kind it is cell-based. The settings on record: N=3. How it is done: (§1) Cells were lysed in buffer containing 20 mM HEPES 7.2, 150 mM NaCl, and 1% Triton X-100, supplemented with fresh protease and phosphatase inhibitors (Invitrogen, #78440), cleared by centrifugation at 12,000 × g for 10 min, and analyzed by BCA protein assay (Thermo Fisher Scientific, #23227). Equal protein amounts were loaded, separated by SDS-PAGE, electrotransferred to nitrocellulose membranes using the iBLOT2 system (Invitrogen), and blocked in 5% nonfat milk solution for 60 min. Membranes were probed with primary antibodies at 1:1000 dilution in 5% milk at 4 °C overnight. Signal was detected using appropriate horseradish peroxidase (HRP)-conjugated secondary antibodies at 1:10,000 in 5% milk at room temperature for 1–2 h. Bands were visualized by the Azure 600 western blot imaging system (Azure Biosystems). For in vitro ubiquitination assays performed with Me-Ub, bands were visualized by the Odyssey CLx Imager (LI‑COR) after incubating the blots with the IRDye 800CW (LI-COR) secondary antibodies at 1:10,000 in Intercept Blocking Buffer (LI-COR) at room temperature for 1–2 h. […]
(§2) The kinome selectivity of G6374 was assessed at 1 μM for 1 h versus a panel of 220 human kinases (SelectScreen Kinase Profiling Services, Thermo Fisher Scientific). […]
In general terms: Immunoblotting shows a protein as a band on a membrane.

In test [3] the test system is U2OS cells. Description: Incucyte cell confluency, U2OS cells. The test is classed as cell-based. The settings on record: U2OS shIRE1 cells, titration. How it is done:
For non-adherent AMO1, KMS27, and OPM2 cells, cells were plated at 5000 cells/well in ultra-low attachment (ULA) 96-well plates (Costar, #7007) and centrifuged at 600 × g for 5 min for spheroid formation. For adherent U2OS and Colo201 cells, 2000 cells/well were seeded in a clear flat-bottom 96-well plate (Costar, #3595). Treatments were added at the time of cell seeding, and cells were cultured in complete RPMI media to a final volume of 200 µL/well. Cultures were maintained at 37 °C throughout the duration of the experiment. Cell confluency was tracked using the Incucyte live-cell imaging system (Sartorius S3). Picture frames were captured every 4 h with a 4× objective, and cell confluency (%) from the total well area as a function of time was calculated using the Incucyte software (version 2023 A Rev2).

Test [4] has as its target T1, IRE1. Briefly: Immunoblot of endogenous IRE1 depletion in KMS27 cells. In kind it is cell-based. Also on record: Immunoblot (IB) analysis of endogenous IRE1 depletion in AMO1 cells; endogenous in cells; host or cells: AMO1, KMS27, H929. As to the method:
Cells were lysed in buffer containing 20 mM HEPES 7.2, 150 mM NaCl, and 1% Triton X-100, supplemented with fresh protease and phosphatase inhibitors (Invitrogen, #78440), cleared by centrifugation at 12,000 × g for 10 min, and analyzed by BCA protein assay (Thermo Fisher Scientific, #23227). Equal protein amounts were loaded, separated by SDS-PAGE, electrotransferred to nitrocellulose membranes using the iBLOT2 system (Invitrogen), and blocked in 5% nonfat milk solution for 60 min. Membranes were probed with primary antibodies at 1:1000 dilution in 5% milk at 4 °C overnight. Signal was detected using appropriate horseradish peroxidase (HRP)-conjugated secondary antibodies at 1:10,000 in 5% milk at room temperature for 1–2 h. Bands were visualized by the Azure 600 western blot imaging system (Azure Biosystems). For in vitro ubiquitination assays performed with Me-Ub, bands were visualized by the Odyssey CLx Imager (LI‑COR) after incubating the blots with the IRDye 800CW (LI-COR) secondary antibodies at 1:10,000 in Intercept Blocking Buffer (LI-COR) at room temperature for 1–2 h.

For test [5], the target named is T3, MELK (Homo sapiens, UniProt Q14680).
T3 construct: endogenous in cells; host or cells: AMO1
T3 sequence (Q14680 whole entry): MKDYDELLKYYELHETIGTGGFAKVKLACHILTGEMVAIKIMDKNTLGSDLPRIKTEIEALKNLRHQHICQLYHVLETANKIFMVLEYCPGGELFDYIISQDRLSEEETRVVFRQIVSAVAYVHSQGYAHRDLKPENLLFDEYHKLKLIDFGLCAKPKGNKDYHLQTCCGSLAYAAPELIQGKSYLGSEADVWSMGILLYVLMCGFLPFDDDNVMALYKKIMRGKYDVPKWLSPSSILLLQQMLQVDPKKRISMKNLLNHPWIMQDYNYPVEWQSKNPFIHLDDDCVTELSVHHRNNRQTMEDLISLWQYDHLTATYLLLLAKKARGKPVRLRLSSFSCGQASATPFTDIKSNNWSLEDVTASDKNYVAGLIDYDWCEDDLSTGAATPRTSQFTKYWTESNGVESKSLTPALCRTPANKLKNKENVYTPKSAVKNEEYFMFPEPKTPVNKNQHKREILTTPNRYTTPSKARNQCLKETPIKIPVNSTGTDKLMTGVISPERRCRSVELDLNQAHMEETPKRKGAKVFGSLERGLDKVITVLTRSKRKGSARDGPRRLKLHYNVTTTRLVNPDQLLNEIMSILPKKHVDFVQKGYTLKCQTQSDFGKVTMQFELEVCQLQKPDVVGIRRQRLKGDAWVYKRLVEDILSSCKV
Description: Immunoblot of MELK depletion in AMO1 cells. In kind it is cell-based. The settings on record: additional replicates. How it is done:
as §1, §2

The target in test [6] is T4, human IRE1.KR (Homo sapiens, UniProt O75460).
T4 construct: Recombinant human IRE1.KR (G547-L977) was purified using an established protocol; His6 (with TEV protease cleavage site) (N, cleaved yes); made in house; host or cells: Sf9
T4 sequence (O75460 547-977): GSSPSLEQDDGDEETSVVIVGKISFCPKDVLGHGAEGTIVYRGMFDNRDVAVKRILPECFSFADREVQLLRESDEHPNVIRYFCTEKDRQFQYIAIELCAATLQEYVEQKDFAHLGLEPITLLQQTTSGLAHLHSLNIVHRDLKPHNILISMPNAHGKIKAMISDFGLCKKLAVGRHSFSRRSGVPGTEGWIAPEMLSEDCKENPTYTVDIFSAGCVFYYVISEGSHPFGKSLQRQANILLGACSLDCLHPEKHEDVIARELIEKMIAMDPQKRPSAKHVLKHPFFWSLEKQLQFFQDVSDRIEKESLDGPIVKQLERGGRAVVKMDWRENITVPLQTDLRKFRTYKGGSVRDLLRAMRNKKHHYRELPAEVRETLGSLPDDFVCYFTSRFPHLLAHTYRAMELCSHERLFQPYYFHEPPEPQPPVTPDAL
Briefly: Surface plasmon resonance, binary interaction with IRE1.KR. The test is classed as binding. The settings on record: SPR, immobilised IRE1.KR, 20 °C, 1 to 1 kinetic model. As to the method:
(§3) All SPR experiments in this paper were recorded on a Biacore S200 instrument; all protein captures and data collection were at 20 °C.
(§4) For binary interactions with G6374: a Xantec SAHC 200 M (streptavidin) chip was inserted into the instrument and primed into running buffer [50 mM HEPES (pH 7.4), 150 mM NaCl, 0.001% Tween 20, 0.2% PEG3350, 0.25 mM TCEP, and 2% DMSO]. Biotinylated human IRE1.KR protein was captured on FC2 to 2-4000 RU, biotinylated VHL in complex with Elongin B (VHL/EloB) was captured on FC4 to 1-2000 RU, data were collected, and all referenced to FC1. Affinity for G6374 was measured using a titration series, injected from low to high with an 8-point, 2-fold dilution dose response with a top concentration of 0.5 μM in both single cycle (single cycle kinetics (SCK)) and multi cycle kinetics (MCK) formats. For MCK experiments, an association time of 45 s and a dissociation time of 200 s with a flow rate of 50 μL/min. For SCK experiments, an association time of 45 s and a dissociation time of 2000 s with a flow rate of 50 μL/min were used. All data were analyzed using Insight software (Cytiva) using a 1 to 1 kinetic binding model.
For orientation: In SPR one partner is held on a chip, and binding of the other changes the refractive index at the surface.

Test [7] has as its target VCB (VHL:EloC:EloB) (Homo sapiens, UniProt P40337). Description: Surface plasmon resonance, binary interaction with VCB. The conditions noted are these: SPR, immobilised VCB, 20 °C, 1 to 1 kinetic model. The test is classed as binding. How it is done:
as §3, §4

Usually Kd stands for a measure of binding affinity in units of concentration. A lower Kd goes with a tighter complex.

Sequence of VCB (VHL:EloC:EloB) (P40337 whole entry): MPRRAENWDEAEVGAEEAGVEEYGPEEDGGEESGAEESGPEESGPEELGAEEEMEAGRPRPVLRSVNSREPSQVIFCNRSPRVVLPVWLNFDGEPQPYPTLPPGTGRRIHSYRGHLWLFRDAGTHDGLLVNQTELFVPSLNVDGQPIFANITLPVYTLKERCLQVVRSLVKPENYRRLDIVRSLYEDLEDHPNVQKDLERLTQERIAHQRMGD
Sequence of VCB (VHL:EloC:EloB) (Q15370 whole entry partner): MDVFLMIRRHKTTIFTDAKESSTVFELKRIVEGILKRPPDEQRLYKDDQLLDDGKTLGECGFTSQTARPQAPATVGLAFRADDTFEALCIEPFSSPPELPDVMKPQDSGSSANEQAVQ
Sequence of VCB (VHL:EloC:EloB) (Q15369 whole entry partner): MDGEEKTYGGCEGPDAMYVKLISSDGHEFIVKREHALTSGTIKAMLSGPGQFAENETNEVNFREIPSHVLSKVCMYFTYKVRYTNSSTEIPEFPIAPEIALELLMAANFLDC
T1 sequence (O75460 19-977): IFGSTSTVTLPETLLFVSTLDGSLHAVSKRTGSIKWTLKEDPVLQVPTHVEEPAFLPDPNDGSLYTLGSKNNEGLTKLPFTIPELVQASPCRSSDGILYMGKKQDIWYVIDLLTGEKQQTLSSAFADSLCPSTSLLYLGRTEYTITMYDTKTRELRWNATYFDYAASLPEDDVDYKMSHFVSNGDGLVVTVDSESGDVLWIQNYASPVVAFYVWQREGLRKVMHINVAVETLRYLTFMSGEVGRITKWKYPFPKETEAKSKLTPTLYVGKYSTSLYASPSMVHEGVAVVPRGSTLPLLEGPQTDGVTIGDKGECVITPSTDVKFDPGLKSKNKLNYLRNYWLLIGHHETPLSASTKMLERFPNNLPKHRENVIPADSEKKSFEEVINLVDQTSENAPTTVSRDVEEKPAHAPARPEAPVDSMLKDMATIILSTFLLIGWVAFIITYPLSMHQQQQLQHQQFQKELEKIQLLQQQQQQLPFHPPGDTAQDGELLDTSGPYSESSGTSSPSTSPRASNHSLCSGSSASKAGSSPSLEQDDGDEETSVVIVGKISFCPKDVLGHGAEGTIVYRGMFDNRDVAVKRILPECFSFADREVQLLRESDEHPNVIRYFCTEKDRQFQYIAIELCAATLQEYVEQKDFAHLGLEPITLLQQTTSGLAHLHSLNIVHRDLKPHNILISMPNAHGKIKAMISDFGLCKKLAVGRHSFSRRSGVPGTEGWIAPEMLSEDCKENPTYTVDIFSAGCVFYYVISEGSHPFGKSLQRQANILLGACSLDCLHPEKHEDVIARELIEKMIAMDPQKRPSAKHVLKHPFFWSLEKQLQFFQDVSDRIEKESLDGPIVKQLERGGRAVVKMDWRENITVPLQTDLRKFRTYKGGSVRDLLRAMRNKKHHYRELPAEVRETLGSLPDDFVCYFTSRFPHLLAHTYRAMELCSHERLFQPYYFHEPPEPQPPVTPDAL
T2 sequence (Q15139 whole entry): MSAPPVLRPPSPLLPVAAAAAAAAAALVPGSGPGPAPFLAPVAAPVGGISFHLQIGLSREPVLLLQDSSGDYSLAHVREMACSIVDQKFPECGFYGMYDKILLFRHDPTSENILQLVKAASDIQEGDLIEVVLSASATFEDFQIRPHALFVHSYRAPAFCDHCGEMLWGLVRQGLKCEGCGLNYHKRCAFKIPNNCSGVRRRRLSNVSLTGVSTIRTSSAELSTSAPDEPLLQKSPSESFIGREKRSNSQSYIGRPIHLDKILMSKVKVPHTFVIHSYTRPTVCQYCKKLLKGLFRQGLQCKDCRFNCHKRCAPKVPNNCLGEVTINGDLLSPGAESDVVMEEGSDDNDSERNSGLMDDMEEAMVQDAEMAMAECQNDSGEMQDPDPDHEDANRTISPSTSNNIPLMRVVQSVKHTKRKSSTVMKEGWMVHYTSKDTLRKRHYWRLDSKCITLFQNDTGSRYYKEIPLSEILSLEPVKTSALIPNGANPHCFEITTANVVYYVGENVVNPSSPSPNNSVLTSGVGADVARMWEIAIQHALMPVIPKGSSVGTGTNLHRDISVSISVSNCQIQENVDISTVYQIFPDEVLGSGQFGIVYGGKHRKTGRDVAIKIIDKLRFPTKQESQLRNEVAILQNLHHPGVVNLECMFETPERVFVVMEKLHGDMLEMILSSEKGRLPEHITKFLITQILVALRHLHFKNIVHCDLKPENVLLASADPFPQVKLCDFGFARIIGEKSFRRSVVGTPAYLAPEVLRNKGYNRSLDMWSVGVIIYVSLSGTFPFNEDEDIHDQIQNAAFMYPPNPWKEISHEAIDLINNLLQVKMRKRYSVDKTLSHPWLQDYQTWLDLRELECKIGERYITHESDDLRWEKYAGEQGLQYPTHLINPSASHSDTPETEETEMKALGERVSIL

For `Cc1ncsc1-c1ccc(CNC(=O)[C@@H]2C[C@@H](O)CN2C(=O)[C@@H](NC(=O)CCCCN2CCN([C@H]3CC[C@H](Nc4ncc5ccc(=O)n(C(C)C)c5n4)CC3)CC2)C(C)(C)C)cc1` [G6374], the “inhibition of IRE1” value in test [1] is on record as “complete inhibition”. The “degradation of PKD1” value in test [2] is “no”. Further, the “proliferation rate (cell confluency)” value in test [3] was “did not affect the proliferation rate”. In test [4] (KMS-27, immunoblot quantification), this compound yielded a Dmax of 98%. For the same compound, the DC50 in test [4] (immunoblot quantification) worked out at 130 nM. Moreover, the “depletion of MELK” value in test [5] is “MELK is not depleted”. The results for the dissociation constant (Kd) in test [6] and in test [7] were 0.56 nM and 90.2 nM, respectively. The kd in test [6] is 0.0025 s⁻¹; in test [7], 0.0477 s⁻¹. In addition, the kon was found to be 4.95e+06 M⁻¹ s⁻¹ in test [6] (read-out: ka) and 514000 M⁻¹ s⁻¹ in test [7] (read-out: ka).
